Measured values published in US6355799B1, “Substituted benzene compounds, process for their preparation, and herbicidal and defoliant compositions containing them” (ISK Americas Incorporated, priority 1997, dated 2002).

How the values were obtained:
Assay type in all cases: in vivo
[1] = tested on: lambsquarters (Chenopodium album, CHEAL); assay: Pre-emerge test, greenhouse herbicide activity screening; conditions: pre-emerge, phytotoxicity rating 0-100 at 14 days after application
In short: (§1)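 Compounds in acetone were track-sprayed at 15-1000 g ai/ha (187 l/ha) on sandy loam pots: pre-emerge one day after seeding, post-emerge at 2-3 leaf stage with 0.25% v/v non-ionic surfactant. Phytotoxicity was rated 14 days later on a 0 (no damage) to 100 (complete death) scale.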

[2] = tested on: ivyleaf morningglory (Ipomoea hederacea, IPOHE); assay: as above; conditions: pre-emerge, phytotoxicity rating 0-100 at 14 days after application
In short: as §1

[3] = tested on: large crabgrass (Digitaria sanguinalis, DIGSA); assay: as above; conditions: pre-emerge, phytotoxicity rating 0-100 at 14 days after application
In short: as §1

[4] = tested on: sicklepod (Cassia obtusifolia, CASOB); assay: as above; conditions: pre-emerge, phytotoxicity rating 0-100 at 14 days after application
In short: as §1

[5] = tested on: johnsongrass (Sorghum halepense, SORHA); assay: as above; conditions: pre-emerge, phytotoxicity rating 0-100 at 14 days after application
In short: as §1

[6] = tested on: barnyardgrass (Echinochloa crus-galli, ECHCG); assay: as above; conditions: pre-emerge, phytotoxicity rating 0-100 at 14 days after application
In short: as §1

[7] = tested on: green foxtail (Setaria viridis, SETVI); assay: as above; conditions: pre-emerge, phytotoxicity rating 0-100 at 14 days after application
In short: as §1

[8] = tested on: velvetleaf (Abutilon theophrasti, ABUTH); assay: as above; conditions: pre-emerge, phytotoxicity rating 0-100 at 14 days after application
In short: as §1

[9] = tested on: field corn (Zea mays L., var. Dekalb 535, CORN); assay: Pre-emerge test, crop safety; conditions: crop damage, pre-emerge, phytotoxicity rating 0-100 at 14 days after application
In short: (§2)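 Sandy loam pots; pre-emerge: sown 1 d pre-spray, surface-watered after, then bottom-watered. Post-emerge: sown 8–21 d before, 2–3 leaf stage, + 0.25% v/v NIS, bottom-watered. Acetone, 187 l/ha track spray, 15–1000 g ai/ha. 0–100 injury score, day 14.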

[10] = tested on: upland rice (Oryza sp., var. Tebonnet, RICE); assay: Pre-emerge test, crop safety; conditions: crop damage, pre-emerge, phytotoxicity rating 0-100 at 14 days after application
In short: as §2

[11] = tested on: soybean (Glycine max L., var. Pella 86, SOY); assay: Pre-emerge test, crop safety; conditions: crop damage, pre-emerge, phytotoxicity rating 0-100 at 14 days after application
In short: as §2

[12] = tested on: lambsquarters (Chenopodium album, CHEAL); assay: Post-emerge test, greenhouse herbicide activity screening; conditions: post-emerge, phytotoxicity rating 0-100 at 14 days after application
In short: (§3)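 Compounds in acetone were track-sprayed at 187 l/ha, 15–1000 g ai/ha, onto sandy loam pots. Pre-emerge seeds were sown one day before spraying, with surface watering afterwards. Post-emerge plants were at the 2–3 leaf stage and sprayed with 0.25% v/v non-ionic surfactant. Injury was rated 0–100 at 14 days.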

[13] = tested on: ivyleaf morningglory (Ipomoea hederacea, IPOHE); assay: as above; conditions: post-emerge, phytotoxicity rating 0-100 at 14 days after application
In short: as §3

[14] = tested on: redroot pigweed (Amaranthus retroflexus, AMARE); assay: as above; conditions: post-emerge, phytotoxicity rating 0-100 at 14 days after application
In short: as §3

[15] = tested on: large crabgrass (Digitaria sanguinalis, DIGSA); assay: as above; conditions: post-emerge, phytotoxicity rating 0-100 at 14 days after application
In short: as §3

[16] = tested on: sicklepod (Cassia obtusifolia, CASOB); assay: as above; conditions: post-emerge, phytotoxicity rating 0-100 at 14 days after application
In short: as §3

[17] = tested on: johnsongrass (Sorghum halepense, SORHA); assay: as above; conditions: post-emerge, phytotoxicity rating 0-100 at 14 days after application
In short: as §3

[18] = tested on: barnyardgrass (Echinochloa crus-galli, ECHCG); assay: as above; conditions: post-emerge, phytotoxicity rating 0-100 at 14 days after application
In short: as §3

[19] = tested on: green foxtail (Setaria viridis, SETVI); assay: as above; conditions: post-emerge, phytotoxicity rating 0-100 at 14 days after application
In short: as §3

[20] = tested on: velvetleaf (Abutilon theophrasti, ABUTH); assay: as above; conditions: post-emerge, phytotoxicity rating 0-100 at 14 days after application
In short: as §3

[21] = tested on: redroot pigweed (Amaranthus retroflexus, AMARE); assay: Pre-emerge test, greenhouse herbicide activity screening; conditions: pre-emerge, phytotoxicity rating 0-100 at 14 days after application
In short: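 Rating: 0–100 visual injury, 14 DAA. Application: acetone, 187 l/ha, 15–1000 g ai/ha, flat-fan track sprayer with nozzle 40–45 cm above soil or canopy. Post-emerge runs used 0.25% v/v surfactant on 2–3 leaf plants.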

[22] = tested on: field corn (Zea mays L., var. Dekalb 535, CORN); assay: Post-emerge test, crop safety; conditions: post-emerge, crop damage rating 0-100 at 14 days after application
In short: as §1

[23] = tested on: upland rice (Oryza sp., var. Tebonnet, RICE); assay: Post-emerge test, crop safety; conditions: post-emerge, crop damage rating 0-100 at 14 days after application
In short: as §1

[24] = tested on: soybean (Glycine max L., var. Pella 86, SOY); assay: Post-emerge test, crop safety; conditions: crop damage rating 0-100 at 14 days after application
In short: as §1

Structure (SMILES): C#CCOc1c(Cl)cc(F)c(-n2nnn(CCCF)c2=O)c1N [Compound 5-17, 1-(2-amino-4-chloro-6-fluoro-3-propargyloxyphenyl)-4-(3-fluoroproyl)-1,4-dihydro-5-oxo-5H-tetrazole]
- Pre-emerge Herbicidal Activity CHEAL ([1]; rate 63 g ai/ha): 70
- Pre-emerge Herbicidal Activity CHEAL ([1]; rate 250 g ai/ha): 100
- Pre-emerge Herbicidal Activity IPOHE ([2]; rate 63 g ai/ha): 0
- Pre-emerge Herbicidal Activity IPOHE ([2]; rate 250 g ai/ha): 0
- Pre-emerge Herbicidal Activity DIGSA ([3]; rate 63 g ai/ha): 30
- Pre-emerge Herbicidal Activity DIGSA ([3]; rate 250 g ai/ha): 50
- Pre-emerge Herbicidal Activity CASOB ([4]; rate 63 g ai/ha): 0
- Pre-emerge Herbicidal Activity CASOB ([4]; rate 250 g ai/ha): 30
- Pre-emerge Herbicidal Activity SORHA ([5]; rate 63 g ai/ha): 40
- Pre-emerge Herbicidal Activity SORHA ([5]; rate 250 g ai/ha): 70
- Pre-emerge Herbicidal Activity ECHCG ([6]; rate 63 g ai/ha): 0
- Pre-emerge Herbicidal Activity ECHCG ([6]; rate 250 g ai/ha): 40
- Pre-emerge Herbicidal Activity SETVI ([7]; rate 63 g ai/ha): 95
- Pre-emerge Herbicidal Activity SETVI ([7]; rate 250 g ai/ha): 100
- Pre-emerge Herbicidal Activity ABUTH ([8]; rate 63 g ai/ha): 40
- Pre-emerge Herbicidal Activity ABUTH ([8]; rate 250 g ai/ha): 100
- Pre-emerge Herbicidal Activity CORN ([9]; rate 63 g ai/ha): 0
- Pre-emerge Herbicidal Activity CORN ([9]; rate 250 g ai/ha): 0
- Pre-emerge Herbicidal Activity RICE ([10]; rate 63 g ai/ha): 20
- Pre-emerge Herbicidal Activity RICE ([10]; rate 250 g ai/ha): 20
- Pre-emerge Herbicidal Activity SOY ([11]; rate 63 g ai/ha): 0
- Pre-emerge Herbicidal Activity SOY ([11]; rate 250 g ai/ha): 0
- Post-emerge Herbicidal Activity CHEAL ([12]; 63 g ai/ha): 20
- Post-emerge Herbicidal Activity CHEAL ([12]; 250 g ai/ha): 60
- Post-emerge Herbicidal Activity IPOHE ([13]; 63 g ai/ha): 30
- Post-emerge Herbicidal Activity IPOHE ([13]; 250 g ai/ha): 40
- Post-emerge Herbicidal Activity AMARE ([14]; 63 g ai/ha): 0
- Post-emerge Herbicidal Activity AMARE ([14]; 250 g ai/ha): 30
- Post-emerge Herbicidal Activity DIGSA ([15]; 63 g ai/ha): 0
- Post-emerge Herbicidal Activity DIGSA ([15]; 250 g ai/ha): 0
- Post-emerge Herbicidal Activity CASOB ([16]; 63 g ai/ha): 0
- Post-emerge Herbicidal Activity CASOB ([16]; 250 g ai/ha): 30
- Post-emerge Herbicidal Activity SORHA ([17]; 63 g ai/ha): 0
- Post-emerge Herbicidal Activity SORHA ([17]; 250 g ai/ha): 10
- Post-emerge Herbicidal Activity ECHCG ([18]; 63 g ai/ha): 0
- Post-emerge Herbicidal Activity ECHCG ([18]; 250 g ai/ha): 20
- Post-emerge Herbicidal Activity SETVI ([19]; 63 g ai/ha): 0
- Post-emerge Herbicidal Activity SETVI ([19]; 250 g ai/ha): 80
- Post-emerge Herbicidal Activity ABUTH ([20]; 63 g ai/ha): 90
- Post-emerge Herbicidal Activity ABUTH ([20]; 250 g ai/ha): 100
- Pre-emerge Herbicidal Activity AMARE ([21]; rate 63 g ai/ha): 30
- Pre-emerge Herbicidal Activity AMARE ([21]; rate 250 g ai/ha): 100
- Post-emerge Herbicidal Activity CORN ([22]; 63 g ai/ha): 0
- Post-emerge Herbicidal Activity CORN ([22]; 250 g ai/ha): 10
- Post-emerge Herbicidal Activity RICE ([23]; 63 g ai/ha): 10
- Post-emerge Herbicidal Activity RICE ([23]; 250 g ai/ha): 50
- Post-emerge Herbicidal Activity SOY ([24]; 63 g ai/ha): 15
- Post-emerge Herbicidal Activity SOY ([24]; 250 g ai/ha): 70
